Test results published in patent publication US20230348418A1, “ISOINDOLINONE COMPOUNDS” (Monte Rosa Therapeutics, Inc., priority 2021, published 2023).
Like-named read-outs stand apart in the source and are kept apart here.

Key:
[1] = molecular target: CRBN-DDB1 (Homo sapiens, UniProt Q96SW2); assay: HTRF binding of compounds to CRBN
Method: Compound activity was monitored in a Homogenous Time-Resolved Fluorescence (HTRF) assay using 1-[5-({2-[2-(2-{[2-(2,6-dioxopiperidin-3-yl)-1,3-dioxo-2,3-dihydro-1H-isoindol-4-yl]oxy}acetamido)ethoxy]ethyl}carbamoyl)pentyl]-3,3-dimethyl-2-[(1E,3E)-5-[(2E)-1,3,3-trimethyl-5-sulfo-2,3-dihydro-1H-indol-2-ylidene]penta-1,3-dien-1-yl]-3H-indol-1-ium-5-sulfonate as a fluorescent probe. […] Compounds were stored in dry, ambient temperatures at 10 mM. A 10-point, 1:3 dilution series was prepared from 10 mM stock concentrations in Echo-compatible LDV plates. 10 nL of each compound dilution series was dispensed into assays wells using an Echo 650 (Labcyte inc. USA). […] The assay was then allowed to incubate for 30 min at ambient temperature after transferring compound. […] Analysis and IC50 values were derived using KNIME analytics (KNIME Zurich) transformation and fitting within Collaborative Drug Discovery (Collaborative Drug Discovery USA). Ki was derived from the geometric mean of the IC50 values using the Cheng-Prustoff transformation.

[2] = molecular target: T1, Full length wild-type cereblon CRBN (Homo sapiens, UniProt Q96SW2); assay: Fluorescence polarization (FP) assay, cereblon binding
T1 construct: Full length wild-type cereblon CRBN (80.0 nM, 10 μL) was incubated in assay buffer
T1 sequence (Q96SW2 whole entry): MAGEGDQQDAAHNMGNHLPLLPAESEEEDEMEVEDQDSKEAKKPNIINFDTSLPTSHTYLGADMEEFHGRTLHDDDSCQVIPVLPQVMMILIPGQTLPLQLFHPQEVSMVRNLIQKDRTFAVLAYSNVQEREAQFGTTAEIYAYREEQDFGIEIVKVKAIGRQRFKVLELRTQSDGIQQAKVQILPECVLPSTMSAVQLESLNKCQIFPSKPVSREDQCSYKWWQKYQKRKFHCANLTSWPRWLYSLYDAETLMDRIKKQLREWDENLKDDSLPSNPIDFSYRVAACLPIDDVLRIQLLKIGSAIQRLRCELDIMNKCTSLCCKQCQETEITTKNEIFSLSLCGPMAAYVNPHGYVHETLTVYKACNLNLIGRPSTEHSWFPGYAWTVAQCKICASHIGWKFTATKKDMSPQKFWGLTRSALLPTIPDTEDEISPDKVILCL
From the text: Compound activity was monitored in a fluorescence polarization (FP) homogeneous assay using 1-[5-({2-[2-(2-{[2-(2,6-dioxopiperidin-3-yl)-1,3-dioxo-2,3-dihydro-1H-isoindol-4-yl]oxy}acetamido)ethoxy]ethyl}carbamoyl)pentyl]-3,3-dimethyl-2-[(1E,3E)-5-[(2E)-1,3,3-trimethyl-5-sulfo-2,3-dihydro-1H-indol-2-ylidene]penta-1,3-dien-1-yl]-3H-indol-1-ium-5-sulfonate as a fluorescent probe. Unless otherwise stated, all reagents were purchased from Sigma Aldrich. […] Full length wild-type cereblon CRBN (80.0 nM, 10 μL) was incubated in assay buffer containing 20 mM HEPES (pH 8.0), […], 0.5 mM TCEP and 0.05% Tween 20 in the presence or absence of compound (300 nL). Inhibitors were stored as 10 mM DMSO stocks in an inert environment (low humidity, dark, low oxygen, room temperature) using the Storage Pod System. […] Following incubation at room temperature for 30 min, the assay was initiated by dispensing the probe to a final concentration of […] (2.5 nL of a 20 μM stock) using the Echo E5XX. […] The FP signal was subsequently normalized to the no-compound control (i.e., DMSO). Analysis and IC50 values were derived using Dotmatics (Dotmatics UK) software.

[3] = read-out: HTRF Class (Cereblon binding, HTRF IC50)
[4] = bounds stated in the text lists b2059-b2061, read-out: IC50 value
[5] = cereblon binding, class code, read-out: rFP IC50
[6] = IC50 value, bounds stated in the text lists b2059-b2061
[7] = rFP IC50 [nM], cereblon binding, class code

Sequence of CRBN-DDB1 (Q96SW2 whole entry): as above
Sequence of CRBN-DDB1 (Q16531 whole entry partner): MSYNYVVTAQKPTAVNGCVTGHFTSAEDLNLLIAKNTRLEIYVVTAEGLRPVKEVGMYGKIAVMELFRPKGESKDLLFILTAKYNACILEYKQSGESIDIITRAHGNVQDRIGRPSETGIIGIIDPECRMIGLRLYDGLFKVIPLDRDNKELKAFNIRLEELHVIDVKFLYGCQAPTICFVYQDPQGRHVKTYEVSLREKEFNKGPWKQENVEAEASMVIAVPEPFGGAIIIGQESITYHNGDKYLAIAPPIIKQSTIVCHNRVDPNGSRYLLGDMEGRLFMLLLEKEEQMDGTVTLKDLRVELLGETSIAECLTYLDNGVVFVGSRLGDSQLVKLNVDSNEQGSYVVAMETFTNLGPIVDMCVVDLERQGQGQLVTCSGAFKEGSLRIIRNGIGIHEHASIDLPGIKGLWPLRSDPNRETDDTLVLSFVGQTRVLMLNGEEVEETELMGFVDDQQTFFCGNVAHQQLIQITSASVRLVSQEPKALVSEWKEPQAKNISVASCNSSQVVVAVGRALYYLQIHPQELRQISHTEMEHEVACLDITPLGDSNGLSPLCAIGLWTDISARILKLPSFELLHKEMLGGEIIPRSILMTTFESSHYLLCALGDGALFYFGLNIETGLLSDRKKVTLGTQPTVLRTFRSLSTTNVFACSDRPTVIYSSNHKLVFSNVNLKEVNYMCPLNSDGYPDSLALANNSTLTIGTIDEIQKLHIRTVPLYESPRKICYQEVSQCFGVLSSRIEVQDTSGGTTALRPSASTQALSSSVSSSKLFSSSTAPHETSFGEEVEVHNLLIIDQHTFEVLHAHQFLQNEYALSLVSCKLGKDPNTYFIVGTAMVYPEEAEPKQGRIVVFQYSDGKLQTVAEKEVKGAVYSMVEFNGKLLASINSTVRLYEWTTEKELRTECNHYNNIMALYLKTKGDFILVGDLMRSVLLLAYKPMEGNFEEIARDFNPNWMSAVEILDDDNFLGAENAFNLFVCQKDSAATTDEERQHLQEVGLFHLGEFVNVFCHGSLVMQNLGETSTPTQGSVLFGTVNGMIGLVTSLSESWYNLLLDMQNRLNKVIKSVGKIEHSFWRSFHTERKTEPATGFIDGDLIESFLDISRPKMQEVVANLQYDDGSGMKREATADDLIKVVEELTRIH

| SMILES | IC50 [2, 4] [nM] | IC50 [2, 5] [nM] | other results |
| --- | --- | --- | --- |
| CC(C)(C)Oc1ccc(F)c(NC(=O)OCc2ccc3c(c2)C(=O)N(C2CCC(=O)NC2=O)C3)c1 (centres unmarked) [Compound 222, (2-(2,6-dioxopiperidin-3-yl)-3-oxoisoindolin-5-yl)methyl (5-(tert-butoxy)-2-fluorophenyl)carbamate] | – | – | IC50 [1, 3]: 0.1 to 1 µM |
| O=C1CCC(N2Cc3ccc(COC(=O)Nc4cc(F)c(OC(F)F)c(F)c4)cc3C2=O)C(=O)N1 (centres unmarked) [Compound 206, (2-(2,6-dioxopiperidin-3-yl)-3-oxoisoindolin-5-yl) methyl (4-(difluoromethoxy)-3,5-difluorophenyl)carbamate] | – | – | IC50 [1, 3]: 0.1 to 1 µM |
| Cc1cc(NC(=O)OCc2ccc3c(c2)C(=O)N(C2CCC(=O)NC2=O)C3)cc(C#N)c1C (centres unmarked) [Compound 186] | – | – | IC50 [1]: 0.1 to 1 µM |
| O=C1CCC(N2Cc3ccc(COC(=O)Nc4cc(Cl)ccc4F)cc3C2=O)C(=O)N1 (centres unmarked) [Compound 163, (2-(2,6-dioxopiperidin-3-yl)-3-oxoisoindolin-5-yl)methyl (5-chloro-2-fluorophenyl)carbamate] | – | – | IC50 [1, 3]: 0.1 to 1 µM |
| O=C1CCC(N2Cc3ccc(COC(=O)Nc4cnc(N5CCCCC5)nc4)cc3C2=O)C(=O)N1 (centres unmarked) [Compound 64] | < 1700 | 500 to 1100 | – |
| Cc1c(Cl)cc(NC(=O)OCc2ccc3c(c2)C(=O)N(C2CCC(=O)NC2=O)C3)cc1OCC1CCNC1 (centres unmarked) [Compound 52] | < 1700 | 500 to 1100 | – |
| O=C1CCC(N2Cc3ccc(COC(=O)N4CCN(c5ccccc5)CC4)cc3C2=O)C(=O)N1 (centres unmarked) [Compound 36] | < 1100 | – | – |
| O=C1CCC(N2Cc3ccc(COC(=O)N4CCCC4)cc3C2=O)C(=O)N1 (centres unmarked) [Compound 26] | < 1700 | 500 to 1100 | – |
| O=C1CCC(N2Cc3ccc(COC(=O)Nc4cc(Cl)cc(OC5CCNC5)c4)cc3C2=O)C(=O)N1 (centres unmarked) [Compound 20] | < 1700 | 1100 to 1700 | – |
| O=C1CCC(N2Cc3ccc(COC(=O)Nc4cc(C(F)(F)F)ns4)cc3C2=O)C(=O)N1 (centres unmarked) [Compound 139] | – | – | IC50 [2, 6]: < 1100 nM; IC50 [2, 7]: 500 to 1100 nM |
| CCc1cc(NC(=O)OCc2ccc3c(c2)C(=O)N(C2CCC(=O)NC2=O)C3)ccn1 (centres unmarked) [Compound 63] | < 1100 | – | – |
| O=C1CCC(N2Cc3ccc(COC(=O)Nc4cc(CN5CCOCC5)cc(OC(F)(F)F)c4)cc3C2=O)C(=O)N1 (centres unmarked) [Compound 4] | < 1700 | 500 to 1100 | – |
| O=C1CCC(N2Cc3ccc(COC(=O)NC4CCN(c5ccccn5)CC4)cc3C2=O)C(=O)N1 (centres unmarked) [Compound 35] | < 1100 | – | – |
| Cc1c(CN2CCOCC2)cc(NC(=O)OCc2ccc3c(c2)C(=O)N(C2CCC(=O)NC2=O)C3)cc1OC(F)F (centres unmarked) [Compound 25] | < 1700 | 500 to 1100 | – |
| O=C1CCC(N2Cc3ccc(COC(=O)Nc4cnc5c(c4)COCC5)cc3C2=O)C(=O)N1 (centres unmarked) [Compound 54] | < 1100 | – | – |
| CC1(c2ccc(NC(=O)OCc3ccc4c(c3)C(=O)N(C3CCC(=O)NC3=O)C4)cc2)CC1 (centres unmarked) [Compound 58] | < 1700 | 500 to 1100 | – |
| O=C1CCC(N2Cc3ccc(COC(=O)Nc4cc(F)cc(Cl)c4)cc3C2=O)C(=O)N1 (centres unmarked) [Compound 12] | < 1700 | 1100 to 1700 | – |
| O=C1CCC(N2Cc3ccc(COC(=O)Nc4ccc(N5CCCC5)nc4)cc3C2=O)C(=O)N1 (centres unmarked) [Compound 60] | < 1100 | – | – |
| Cc1ccc(NC(=O)OCc2ccc3c(c2)C(=O)N(C2CCC(=O)NC2=O)C3)cc1OC(F)F (centres unmarked) [Compound 24] | < 1700 | 500 to 1100 | – |
| O=C1CCC(N2Cc3ccc(COC(=O)Nc4ccc5c(c4)CCC5)cc3C2=O)C(=O)N1 (centres unmarked) [Compound 56] | < 1700 | 1100 to 1700 | – |
| Cc1cc(NC(=O)OCc2ccc3c(c2)C(=O)N(C2CCC(=O)NC2=O)C3)cc(C(C)(C)C)n1 (centres unmarked) [Compound 118] | – | – | IC50 [2, 6]: < 1100 nM; IC50 [2, 7]: 500 to 1100 nM |
| O=C1CCC(N2Cc3ccc(COC(=O)Nc4ccc(F)c(Cl)c4)cc3C2=O)C(=O)N1 (centres unmarked) [Compound 9] | < 1700 | 1100 to 1700 | – |
| Cc1cc(Cl)c(NC(=O)OCc2ccc3c(c2)C(=O)N(C2CCC(=O)NC2=O)C3)cc1Cl (centres unmarked) [Compound 119] | – | – | IC50 [2, 6]: < 1100 nM; IC50 [2, 7]: 500 to 1100 nM |

Now from value to compound, other results behind:

| IC50 [2, 4] [nM] | IC50 [2, 5] [nM] | SMILES | other results |
| --- | --- | --- | --- |
| < 1100 | – | Cc1cc(C#N)cc(NC(=O)OCc2ccc3c(c2)C(=O)N(C2CCC(=O)NC2=O)C3)c1 (centres unmarked) [Compound 112, (2-(2,6-dioxopiperidin-3-yl)-3-oxoisoindolin-5-yl)methyl (3-cyano-5-methylphenyl)carbamate] | – |
| < 1100 | – | O=C1CCC(N2Cc3ccc(COC(=O)Nc4ccc5c(c4)CCO5)cc3C2=O)C(=O)N1 (centres unmarked) [Compound 66] | – |
| < 1100 | – | CC1(c2ccc(NC(=O)OCc3ccc4c(c3)C(=O)N(C3CCC(=O)NC3=O)C4)cn2)CC1 (centres unmarked) [Compound 152, (2-(2,6-dioxopiperidin-3-yl)-3-oxoisoindolin-5-yl)methyl (6-(1-methylcyclopropyl)pyridin-3-yl)carbamate] | – |
| < 1100 | 500 to 1100 | CC(C)(C)c1ccc(NC(=O)OCc2ccc3c(c2)C(=O)N(C2CCC(=O)NC2=O)C3)c(F)c1 (centres unmarked) [Compound 142, (2-(2,6-dioxopiperidin-3-yl)-3-oxoisoindolin-5-yl)methyl (4-(tert-butyl)-2-fluorophenyl)carbamate] | – |
| < 1100 | – | O=C1CCC(N2Cc3ccc(COC(=O)Nc4ccc(N5CC6CCC(C5)O6)nc4)cc3C2=O)C(=O)N1 (centres unmarked) [Compound 65] | – |
| < 1100 | 500 to 1100 | Cc1cc(F)c(NC(=O)OCc2ccc3c(c2)C(=O)N(C2CCC(=O)NC2=O)C3)cc1Cl (centres unmarked) [Compound 141, (2-(2,6-dioxopiperidin-3-yl)-3-oxoisoindolin-5-yl)methyl (5-chloro-2-fluoro-4-methylphenyl)carbamate] | – |
| < 1100 | – | O=C1CCC(N2Cc3ccc(COC(=O)Nc4ccc(C5COC5)cc4)cc3C2=O)C(=O)N1 (centres unmarked) [Compound 81] | – |
| < 1700 | 500 to 1100 | O=C1CCC(N2Cc3ccc(COC(=O)Nc4ccc(N5CCOCC5)nc4)cc3C2=O)C(=O)N1 (centres unmarked) [Compound 76] | – |
| < 1700 | 1100 to 1700 | CCc1cc(NC(=O)OCc2ccc3c(c2)C(=O)N(C2CCC(=O)NC2=O)C3)cc(C)n1 (centres unmarked) [Compound 71] | – |
| < 1700 | 500 to 1100 | Cc1cc(NC(=O)OCc2ccc3c(c2)C(=O)N(C2CCC(=O)NC2=O)C3)cnc1-c1ccccc1 (centres unmarked) [Compound 88] | – |
| < 1700 | 1100 to 1700 | Cc1cc(Cl)cc(NC(=O)OCc2ccc3c(c2)C(=O)N(C2CCC(=O)NC2=O)C3)c1 (centres unmarked) [Compound 144, (2-(2,6-dioxopiperidin-3-yl)-3-oxoisoindolin-5-yl)methyl (3-chloro-5-methylphenyl)carbamate] | – |
| < 1100 | – | O=C1CCC(N2Cc3ccc(COC(=O)Nc4ccc(N5CCC(F)(F)CC5)nc4)cc3C2=O)C(=O)N1 (centres unmarked) [Compound 78] | – |
| < 1100 | – | Cc1cc(NC(=O)OCc2ccc3c(c2)C(=O)N(C2CCC(=O)NC2=O)C3)cc(C)c1F (centres unmarked) [Compound 124, (2-(2,6-dioxopiperidin-3-yl)-3-oxoisoindolin-5-yl)methyl (4-fluoro-3,5-dimethylphenyl)carbamate] | – |
| < 1100 | – | O=C1CCC(N2Cc3ccc(COC(=O)Nc4ccc(C5CC5)nc4)cc3C2=O)C(=O)N1 (centres unmarked) [Compound 80] | – |
| < 1100 | – | O=C1CCC(N2Cc3ccc(COC(=O)Nc4ccc(N5CCCCC5)nn4)cc3C2=O)C(=O)N1 (centres unmarked) [Compound 75] | – |
| < 1100 | – | O=C1CCC(N2Cc3ccc(COC(=O)Nc4cnc(N5CCCCC5)cn4)cc3C2=O)C(=O)N1 (centres unmarked) [Compound 94] | – |
| < 1700 | 1100 to 1700 | COc1cc(NC(=O)OCc2ccc3c(c2)C(=O)N(C2CCC(=O)NC2=O)C3)cnc1-c1ccccc1 (centres unmarked) [Compound 90] | – |
| < 1100 | – | N#Cc1cc(Cl)cc(NC(=O)OCc2ccc3c(c2)C(=O)N(C2CCC(=O)NC2=O)C3)c1 (centres unmarked) [Compound 111, (2-(2,6-dioxopiperidin-3-yl)-3-oxoisoindolin-5-yl)methyl (3-chloro-5-cyanophenyl)carbamate] | – |
| < 1100 | – | C[C@H]1CCCN1c1ccc(NC(=O)OCc2ccc3c(c2)C(=O)N(C2CCC(=O)NC2=O)C3)cn1 (stereo partly drawn) [Compound 156, (2-(2,6-dioxopiperidin-3-yl)-3-oxoisoindolin-5-yl)methyl (6-((S)-2-methylpyrrolidin-1-yl)pyridin-3-yl)carbamate] | – |
| < 1700 | 500 to 1100 | O=C1CCC(N2Cc3ccc(COC(=O)Nc4cnc(N5CCCCC5)c(F)c4)cc3C2=O)C(=O)N1 (centres unmarked) [Compound 72] | – |
